Measurements taken from patent US10906910B2, “Substituted bicyclic pyrimidine compounds with tubulin and multiple receptor inhibition” (Duquesne University of the Holy Spirit, priority 2014, dated 2021).
Where two headings read alike, the source gives them in different places.

Key:
Assay type in all cases: cell-based
[1] = system: wild type HeLa cells; experiment: HeLa cytotoxicity, wild type
[2] = system: βIII-tubulin overexpressing HeLa cell line; experiment: HeLa cytotoxicity, βIII-tubulin overexpressing; conditions: βIII-tubulin overexpressing HeLa
[3] = system: IGROVI; experiment: NCI 60 panel, Ovarian cancer IGROVI; conditions: read-out: Tumor cell inhibitory activity (NCI) GI50
[4] = system: SF-268; experiment: NCI 60 panel, CNS Cancer SF-268; conditions: Homo sapiens, read-out: Tumor cell inhibitory activity (NCI) GI50
[5] = system: NCI 60 tumor cell line panel; experiment: NCI 60 tumor cell line panel, overall
[6] = system: RXF 393; experiment: NCI 60 panel, Renal Cancer RXF 393; conditions: Homo sapiens, read-out: Tumor cell inhibitory activity (NCI) GI50
[7] = system: NCI-H226; experiment: NCI 60 panel, NSCLC NCI-H226; conditions: Homo sapiens, read-out: Tumor cell inhibitory activity (NCI) GI50
[8] = system: MDA-MB-231/ATCC; experiment: NCI 60 panel, Breast Cancer MDA-MB-231/ATCC; conditions: Homo sapiens, read-out: Tumor cell inhibitory activity (NCI) GI50
[9] = system: CAKI-1; experiment: NCI 60 panel, Renal Cancer CAKI-1; conditions: Homo sapiens, read-out: Tumor cell inhibitory activity (NCI) GI50
[10] = system: T-47D; experiment: NCI 60 panel, Breast Cancer T-47D; conditions: Homo sapiens, T47D, read-out: Tumor cell inhibitory activity (NCI) GI50
[11] = system: HL-60(TB); experiment: NCI 60 panel, Leukemia HL-60(TB); conditions: Homo sapiens, read-out: Tumor cell inhibitory activity (NCI) GI50
[12] = system: HOP-92; experiment: NCI 60 panel, NSCLC HOP-92; conditions: Homo sapiens, read-out: Tumor cell inhibitory activity (NCI) GI50
[13] = system: OVCAR-8; experiment: NCI 60 panel, Ovarian cancer OVCAR-8; conditions: Homo sapiens, read-out: Tumor cell inhibitory activity (NCI) GI50
[14] = system: OVCAR-3; experiment: NCI 60 panel, Ovarian cancer OVCAR-3; conditions: Homo sapiens, read-out: Tumor cell inhibitory activity (NCI) GI50
[15] = system: SF-539; experiment: NCI 60 panel, CNS Cancer SF-539; conditions: Homo sapiens, read-out: Tumor cell inhibitory activity (NCI) GI50
[16] = system: MOLT-4; experiment: NCI 60 panel, Leukemia MOLT-4; conditions: Homo sapiens, read-out: Tumor cell inhibitory activity (NCI) GI50
[17] = system: 786-0; experiment: NCI 60 panel, Renal Cancer 786-0; conditions: Homo sapiens, read-out: Tumor cell inhibitory activity (NCI) GI50
[18] = system: HOP-62; experiment: NCI 60 panel, NSCLC HOP-62; conditions: Homo sapiens, read-out: Tumor cell inhibitory activity (NCI) GI50
[19] = system: A549/ATCC; experiment: NCI 60 panel, NSCLC A549/ATCC; conditions: Homo sapiens, read-out: Tumor cell inhibitory activity (NCI) GI50
[20] = system: SK-MEL-5; experiment: NCI 60 panel, Melanoma SK-MEL-5; conditions: Homo sapiens, read-out: Tumor cell inhibitory activity (NCI) GI50
[21] = system: MDA-MB-435; experiment: NCI 60 panel, Melanoma MDA-MB-435; conditions: Homo sapiens, read-out: Tumor cell inhibitory activity (NCI) GI50
[22] = system: UACC-257; experiment: NCI 60 panel, Melanoma UACC-257; conditions: Homo sapiens, read-out: Tumor cell inhibitory activity (NCI) GI50
[23] = system: EKVX; experiment: NCI 60 panel, NSCLC EKVX; conditions: Homo sapiens, read-out: Tumor cell inhibitory activity (NCI) GI50
[24] = system: SW-620; experiment: NCI 60 panel, Colon Cancer SW-620; conditions: Homo sapiens, read-out: Tumor cell inhibitory activity (NCI) GI50
[25] = system: NCI-H23; experiment: NCI 60 panel, NSCLC NCI-H23; conditions: Homo sapiens, read-out: Tumor cell inhibitory activity (NCI) GI50
[26] = system: HCT-15; experiment: NCI 60 panel, Colon Cancer HCT-15; conditions: Homo sapiens, read-out: Tumor cell inhibitory activity (NCI) GI50
[27] = molecular target: EGFR (Homo sapiens, UniProt P00533); experiment: EGFR kinase inhibition, whole-cell assay; conditions: read-out: kinase inhibition IC50 [whole-cell assays] EGFR
[28] = system: A498; experiment: NCI 60 panel, Renal Cancer A498; conditions: Homo sapiens, read-out: Tumor cell inhibitory activity (NCI) GI50
[29] = system: SNB-75; experiment: NCI 60 panel, CNS Cancer SNB-75; conditions: Homo sapiens, read-out: Tumor cell inhibitory activity (NCI) GI50
[30] = system: UO-31; experiment: NCI 60 panel, Renal Cancer UO-31; conditions: Homo sapiens, read-out: Tumor cell inhibitory activity (NCI) GI50
[31] = system: OVCAR-4; experiment: NCI 60 panel, Ovarian cancer OVCAR-4; conditions: Homo sapiens, read-out: Tumor cell inhibitory activity (NCI) GI50
[32] = system: DU-145; experiment: NCI 60 panel, Prostate Cancer DU-145; conditions: Homo sapiens, read-out: Tumor cell inhibitory activity (NCI) GI50
[33] = system: NCI-H460; experiment: NCI 60 panel, NSCLC NCI-H460; conditions: Homo sapiens, read-out: Tumor cell inhibitory activity (NCI) GI50
[34] = system: NCI/ADR-RES; experiment: NCI 60 panel, Ovarian cancer NCI/ADR-RES; conditions: Homo sapiens, read-out: Tumor cell inhibitory activity (NCI) GI50
[35] = system: MALME-3M; experiment: NCI 60 panel, Melanoma MALME-3M; conditions: Homo sapiens, read-out: Tumor cell inhibitory activity (NCI) GI50
[36] = system: SNB-19; experiment: NCI 60 panel, CNS Cancer SNB-19; conditions: Homo sapiens, read-out: Tumor cell inhibitory activity (NCI) GI50
[37] = system: LOX IMVI; experiment: NCI 60 panel, Melanoma LOX IMVI; conditions: Homo sapiens, read-out: Tumor cell inhibitory activity (NCI) GI50
[38] = system: K-562; experiment: NCI 60 panel, Leukemia K-562; conditions: Homo sapiens, K562, read-out: Tumor cell inhibitory activity (NCI) GI50
[39] = system: HS 578T; experiment: NCI 60 panel, Breast Cancer HS 578T; conditions: Homo sapiens, read-out: Tumor cell inhibitory activity (NCI) GI50
[40] = system: M14; experiment: NCI 60 panel, Melanoma M14; conditions: Homo sapiens, read-out: Tumor cell inhibitory activity (NCI) GI50
[41] = system: BT-549; experiment: NCI 60 panel, Breast Cancer BT-549; conditions: Homo sapiens, read-out: Tumor cell inhibitory activity (NCI) GI50
[42] = system: COLO 205; experiment: NCI 60 panel, Colon Cancer COLO 205; conditions: Homo sapiens, read-out: Tumor cell inhibitory activity (NCI) GI50
[43] = system: KM12; experiment: NCI 60 panel, Colon Cancer KM12; conditions: Homo sapiens, read-out: Tumor cell inhibitory activity (NCI) GI50
[44] = system: SF-295; experiment: NCI 60 panel, CNS Cancer SF-295; conditions: Homo sapiens, read-out: Tumor cell inhibitory activity (NCI) GI50
[45] = system: U251; experiment: NCI 60 panel, CNS Cancer U251; conditions: Homo sapiens, U-251, read-out: Tumor cell inhibitory activity (NCI) GI50
[46] = system: NCI-H322M; experiment: NCI 60 panel, NSCLC NCI-H322M; conditions: Homo sapiens, read-out: Tumor cell inhibitory activity (NCI) GI50
[47] = system: RPMI-8226; experiment: NCI 60 panel, Leukemia RPMI-8226; conditions: Homo sapiens, read-out: Tumor cell inhibitory activity (NCI) GI50
[48] = system: CCRF-CEM; experiment: NCI 60 panel, Leukemia CCRF-CEM; conditions: Homo sapiens, read-out: Tumor cell inhibitory activity (NCI) GI50
[49] = system: MDA-MB-468; experiment: NCI 60 panel, Breast Cancer MDA-MB-468; conditions: Homo sapiens, read-out: Tumor cell inhibitory activity (NCI) GI50
[50] = system: HCC-2998; experiment: NCI 60 panel, Colon Cancer HCC-2998; conditions: Homo sapiens, read-out: Tumor cell inhibitory activity (NCI) GI50
[51] = system: SK-MEL-28; experiment: NCI 60 panel, Melanoma SK-MEL-28; conditions: Homo sapiens, read-out: Tumor cell inhibitory activity (NCI) GI50
[52] = system: MCF7; experiment: NCI 60 panel, Breast Cancer MCF7; conditions: Homo sapiens, read-out: Tumor cell inhibitory activity (NCI) GI50
[53] = system: UACC-62; experiment: NCI 60 panel, Melanoma UACC-62; conditions: Homo sapiens, read-out: Tumor cell inhibitory activity (NCI) GI50
[54] = system: SK-OV-3; experiment: NCI 60 panel, Ovarian cancer SK-OV-3; conditions: Homo sapiens, read-out: Tumor cell inhibitory activity (NCI) GI50
[55] = system: OVCAR-5; experiment: NCI 60 panel, Ovarian cancer OVCAR-5; conditions: Homo sapiens, read-out: Tumor cell inhibitory activity (NCI) GI50
[56] = system: ACHN; experiment: NCI 60 panel, Renal Cancer ACHN; conditions: Homo sapiens, read-out: Tumor cell inhibitory activity (NCI) GI50
[57] = system: HCT-116; experiment: NCI 60 panel, Colon Cancer HCT-116; conditions: Homo sapiens, read-out: Tumor cell inhibitory activity (NCI) GI50
[58] = molecular target: PDGFRβ (Homo sapiens, UniProt P09619); experiment: PDGFRβ kinase inhibition, whole-cell assay; conditions: whole-cell assay; read-out: kinase inhibition IC50 [whole-cell assays] PDGFRβ
[59] = system: SR; experiment: NCI 60 panel, Leukemia SR; conditions: Homo sapiens, read-out: Tumor cell inhibitory activity (NCI) GI50
[60] = system: SN12C; experiment: NCI 60 panel, Renal Cancer SN12C; conditions: Homo sapiens, read-out: Tumor cell inhibitory activity (NCI) GI50
[61] = system: NCI-H522; experiment: NCI 60 panel, NSCLC NCI-H522; conditions: Homo sapiens, read-out: Tumor cell inhibitory activity (NCI) GI50
[62] = system: TK10; experiment: NCI 60 panel, Renal Cancer TK10; conditions: Homo sapiens, TK-10, read-out: Tumor cell inhibitory activity (NCI) GI50

EGFR, sequence (P00533 25-1210, species assumed): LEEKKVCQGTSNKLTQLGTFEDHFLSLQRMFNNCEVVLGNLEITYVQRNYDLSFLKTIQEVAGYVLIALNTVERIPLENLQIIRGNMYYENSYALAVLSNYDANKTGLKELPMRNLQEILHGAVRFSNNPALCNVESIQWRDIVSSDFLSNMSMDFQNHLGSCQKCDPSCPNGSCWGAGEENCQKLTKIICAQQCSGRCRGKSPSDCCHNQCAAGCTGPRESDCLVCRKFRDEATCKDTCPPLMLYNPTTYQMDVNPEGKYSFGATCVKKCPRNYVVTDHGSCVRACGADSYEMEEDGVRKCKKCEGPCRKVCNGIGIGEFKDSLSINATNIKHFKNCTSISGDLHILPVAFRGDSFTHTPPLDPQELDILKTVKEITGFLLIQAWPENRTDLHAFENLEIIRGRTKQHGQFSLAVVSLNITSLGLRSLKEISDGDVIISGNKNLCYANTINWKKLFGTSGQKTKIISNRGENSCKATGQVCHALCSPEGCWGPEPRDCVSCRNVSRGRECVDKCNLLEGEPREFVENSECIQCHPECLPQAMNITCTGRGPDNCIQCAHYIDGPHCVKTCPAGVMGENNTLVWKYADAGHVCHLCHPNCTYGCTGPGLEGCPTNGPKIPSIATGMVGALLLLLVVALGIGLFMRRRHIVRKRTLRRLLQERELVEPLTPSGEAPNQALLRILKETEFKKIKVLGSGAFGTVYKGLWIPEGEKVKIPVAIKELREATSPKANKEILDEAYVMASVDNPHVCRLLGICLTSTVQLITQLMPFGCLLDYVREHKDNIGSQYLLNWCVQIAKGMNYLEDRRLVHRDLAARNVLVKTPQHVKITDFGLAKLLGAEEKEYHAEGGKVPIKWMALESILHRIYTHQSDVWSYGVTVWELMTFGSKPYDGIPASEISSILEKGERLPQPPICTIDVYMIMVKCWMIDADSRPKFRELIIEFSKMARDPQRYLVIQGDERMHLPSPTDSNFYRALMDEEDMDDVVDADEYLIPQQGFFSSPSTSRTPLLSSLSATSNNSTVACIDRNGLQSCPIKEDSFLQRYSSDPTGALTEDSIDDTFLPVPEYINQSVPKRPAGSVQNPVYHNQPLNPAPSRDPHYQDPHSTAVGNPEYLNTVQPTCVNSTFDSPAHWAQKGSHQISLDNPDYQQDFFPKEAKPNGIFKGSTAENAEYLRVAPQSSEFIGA
PDGFRβ, sequence (P09619 33-1106, species assumed): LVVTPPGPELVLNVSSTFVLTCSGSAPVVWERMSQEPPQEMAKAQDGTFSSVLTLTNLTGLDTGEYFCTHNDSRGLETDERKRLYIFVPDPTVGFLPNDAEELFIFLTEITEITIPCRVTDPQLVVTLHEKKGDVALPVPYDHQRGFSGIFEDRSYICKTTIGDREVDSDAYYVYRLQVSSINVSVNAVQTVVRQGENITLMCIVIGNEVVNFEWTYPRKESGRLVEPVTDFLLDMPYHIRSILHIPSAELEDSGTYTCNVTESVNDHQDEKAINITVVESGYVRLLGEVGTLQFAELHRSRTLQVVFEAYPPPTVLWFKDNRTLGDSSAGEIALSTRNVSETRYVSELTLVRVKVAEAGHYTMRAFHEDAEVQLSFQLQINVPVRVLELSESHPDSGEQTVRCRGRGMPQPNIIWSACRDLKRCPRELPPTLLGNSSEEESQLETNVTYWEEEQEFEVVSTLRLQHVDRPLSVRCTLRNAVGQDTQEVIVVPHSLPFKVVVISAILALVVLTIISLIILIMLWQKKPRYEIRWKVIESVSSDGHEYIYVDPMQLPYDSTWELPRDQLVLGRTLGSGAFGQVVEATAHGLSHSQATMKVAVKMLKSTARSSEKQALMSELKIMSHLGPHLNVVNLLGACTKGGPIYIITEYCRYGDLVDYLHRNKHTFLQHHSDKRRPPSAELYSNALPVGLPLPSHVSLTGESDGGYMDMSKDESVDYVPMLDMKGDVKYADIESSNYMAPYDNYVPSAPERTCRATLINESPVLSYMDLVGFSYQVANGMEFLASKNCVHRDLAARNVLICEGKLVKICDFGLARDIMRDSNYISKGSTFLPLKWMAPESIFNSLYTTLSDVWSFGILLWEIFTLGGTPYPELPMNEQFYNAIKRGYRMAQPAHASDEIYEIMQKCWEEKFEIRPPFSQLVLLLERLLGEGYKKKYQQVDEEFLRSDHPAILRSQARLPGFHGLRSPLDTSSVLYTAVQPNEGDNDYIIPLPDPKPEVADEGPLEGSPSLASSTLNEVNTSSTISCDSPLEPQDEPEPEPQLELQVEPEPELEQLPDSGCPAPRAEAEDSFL

`COc1ccc(/C=C\c2cc(OC)c(OC)c(OC)c2)cc1O` [combretastatin A-4, reference compound] was tested, and the IC50 [1] was 1.8 nM and the IC50 [2] was 2.5 ± 0.7 nM.
For `COc1ccc2c(c1)CCCN2c1nc(C)nc2c(Cc3ccccc3)c[nH]c12` [Compound 2, 1-(7-Benzyl-2-methyl-5H-pyrrolo[3,2-d]pyrimidin-4-yl)-6-methoxy-1,2,3,4-tetrahydroquinoline], the GI50 [3] was 440 nM, the GI50 [4] was 723 nM and the “GI50 across the NCI 60 tumor cell line panel, in words” value [5] was 2- to 3-digit nanomolar. It also gave a GI50 [6] of 212 nM, a GI50 [7] of 136 nM and a GI50 [8] of 641 nM. The GI50 [9] was 341 nM, the GI50 [10] was 128 nM and the GI50 [11] was 222 nM. For the same compound, the GI50 [12] was 189 nM, the GI50 [13] was 487 nM and the GI50 [14] was 285 nM. It also gave a GI50 [15] of 260 nM, a GI50 [16] of 345 nM and an IC50 ([1]; Homo sapiens) of 250 nM. It also gave a GI50 [17] of 934 nM, a GI50 [18] of 379 nM and a GI50 [19] of 406 nM. It also gave a GI50 [20] of 325 nM, a GI50 [21] of 341 nM and a GI50 [22] of 108 nM. It also gave a GI50 [23] of 463 nM, a GI50 [24] of 370 nM and a GI50 [25] of 320 nM. It also gave a GI50 [26] of 366 nM, an IC50 [27] of 33.6 nM and a GI50 [28] of 197 nM. The GI50 [29] was 182 nM, the GI50 [30] was 390 nM and the GI50 [31] was 468 nM. For the same compound, the GI50 [32] was 383 nM, the GI50 [33] was 337 nM and the GI50 [34] was 265 nM. It also gave a GI50 [35] of 330 nM, a GI50 [36] of 549 nM and a GI50 [37] of 521 nM. The GI50 [38] was 111 nM, the GI50 [39] was 582 nM and the GI50 [40] was 252 nM. The GI50 [41] was 755 nM, the GI50 [42] was 232 nM and the GI50 [43] was 366 nM. It also gave a GI50 [44] of 192 nM, a GI50 [45] of 316 nM and a GI50 [46] of 362 nM. It also gave a GI50 [47] of 266 nM, a GI50 [48] of 226 nM and a GI50 [49] of 153 nM. The GI50 [50] was 318 nM, the GI50 [51] was 368 nM and the GI50 [52] was 248 nM. The GI50 [53] was 659 nM, the GI50 [54] was 423 nM and the GI50 [55] was 543 nM. It also gave a GI50 [56] of 830 nM, a GI50 [57] of 368 nM and an IC50 [58] of 90.3 nM. The GI50 [59] was 922 nM, the GI50 [60] was 618 nM and the GI50 [61] was 316 nM. It also gave a GI50 [62] of 123 nM.
